Where “and” joins values, the source holds several entries; their conditions need not be identical. Equal values may be shown once.
Experiments:
[1] = system: skin blemishes caused by cellulite and localised adiposity; test: Plicometry: skin plica thickness measured with a plicometer, dermatological test of the cosmetic gel; type: in vivo, female volunteers; set-up: RIGHT PLICOMETRY 1/3 T0 / RIGHT PLICOMETRY 3/3 T15 / RIGHT PLICOMETRY 3/3 T30 / RIGHT PLICOMETRY 3/3 T60 / RIGHT PLICOMETRY 1/3 T15 / RIGHT PLICOMETRY 1/3 T30 / RIGHT PLICOMETRY 1/3 T60 / RIGHT PLICOMETRY 2/3 T0 / RIGHT PLICOMETRY 2/3 T15 / RIGHT PLICOMETRY 2/3 T30 / RIGHT PLICOMETRY 2/3 T60 / RIGHT PLICOMETRY 3/3 T0 / LEFT PLICOMETRY 1/3 T0 / LEFT PLICOMETRY 3/3 T15 / LEFT PLICOMETRY 3/3 T30 / LEFT PLICOMETRY 3/3 T60 / LEFT PLICOMETRY 1/3 T30 / LEFT PLICOMETRY 1/3 T60 / LEFT PLICOMETRY 2/3 T0 / LEFT PLICOMETRY 2/3 T15 / LEFT PLICOMETRY 2/3 T30 / LEFT PLICOMETRY 2/3 T60 / LEFT PLICOMETRY 3/3 T0: unit not given beside the values
Description: (§1) A dermatological test was carried out on 25 female volunteers between 18 and 65 years of age, with the backing of the Department of Physiological and Pharmacological Sciences of the university of Pavia. The investigation aimed to check the modification of three anatomical-physiological parameters, qualifying the unaesthetic-functional aspect connected to the manifestation of so-called cellulite and subcutaneous hypertriglyceridaemia: measurement of the skin folds, measurement of the circumference of the thighs, thermographic skin measurement.
(§2) The test stretched out over 60 days with the continual daily application of the aforementioned preparation of cosmetic gel. The measurements were carried out after 15, 30 and 60 days. The detail of the test protocol and of the results obtained is shown hereafter.
25 female volunteers aged between 18 and 65, with the presence of skin blemishes caused by cellulite and localised adiposity, were selected according to the following criteria: good general state of health, absence of skin pathologies, not being under medication, commitment not to vary the normal daily routine, no medical history of atopy.
The samples were tested by uniformly applying them on “Glute SX Glute DJ (Femoris Posto SX Femoris Posto DX Femoris Ant. SX Femoris Ant. DX” every day at least once per day for the entire duration of the test.
At the time of inclusion in the study and during the subsequent checks after 15 days (T15), after 30 days (T30) and after 60 days (T60) of treatment the following instrumental measurements were taken: • plicometry (through a plicometer) • thigh circumference (through a measuring tape broken into millimetres) • contact thermography (through liquid crystal thermographic plates).
In particular, the plicometer used in the test constitutes the suitable instrument for measuring the skin plica thickness. Skin plicometry provides numerical data of particular use when the panniculopathic process of the cellulite is associated with localised adiposity.

[2] = system: skin blemishes deriving from cellulite and from localised adiposity; test: Overall evaluation of the efficiency of the cosmetic product adjuvating the reduction of skin blemishes; type: in vivo, female volunteers; conditions: versus just carnitine (II) and just hydroxy citric acid (III) in the same tests
Description: as §1, §2
Evaluation of the Efficiency of a Cosmetic Product Adjuvating the Reduction of the Skin Blemishes Deriving from Cellulite and from Localised Adiposity.
The present experimentation allows it to be evaluated whether the cosmetic product being studied carries out an action adjuvating the reduction of the skin blemishes deriving from cellulite and from localised adiposity. […]

[3] = MEDIA of 25 volunteers, T0 at inclusion, before treatment
[4] = MEDIA of 25 volunteers, after 15 days of daily gel application
[5] = MEDIA of 25 volunteers, after 30 days of daily gel application
[6] = MEDIA of 25 volunteers, after 60 days of daily gel application
[7] = individual volunteer, T0 at inclusion, before treatment
[8] = individual volunteer, after 15 days of daily gel application
[9] = individual volunteer, after 30 days of daily gel application
[10] = individual volunteer, after 60 days of daily gel application

carnitine hydroxycitrate [carnitine hydroxy citrate]
LEFT PLICOMETRY 1/3 T0, MEDIA [1, 3]: 25.7 | LEFT PLICOMETRY 2/3 T0, MEDIA [1, 3]: 29.6 | LEFT PLICOMETRY 3/3 T0, MEDIA [1, 3]: 31.2 | RIGHT PLICOMETRY 1/3 T0, MEDIA [1, 3]: 25.7 | RIGHT PLICOMETRY 2/3 T0, MEDIA [1, 3]: 30.9 | RIGHT PLICOMETRY 3/3 T0, MEDIA [1, 3]: 33.0 | LEFT PLICOMETRY 1/3 T15, MEDIA [1, 4]: 25.3 | LEFT PLICOMETRY 2/3 T15, MEDIA [1, 4]: 28.9 | LEFT PLICOMETRY 3/3 T15, MEDIA [1, 4]: 30.6 | RIGHT PLICOMETRY 1/3 T15, MEDIA [1, 4]: 24.4 | RIGHT PLICOMETRY 2/3 T15, MEDIA [1, 4]: 29.6 | RIGHT PLICOMETRY 3/3 T15, MEDIA [1, 4]: 32.3 | LEFT PLICOMETRY 1/3 T30, MEDIA [1, 5]: 23.5 | LEFT PLICOMETRY 2/3 T30, MEDIA [1, 5]: 27.3 | LEFT PLICOMETRY 3/3 T30, MEDIA [1, 5]: 29.1 | RIGHT PLICOMETRY 1/3 T30, MEDIA [1, 5]: 23.4 | RIGHT PLICOMETRY 2/3 T30, MEDIA [1, 5]: 28.3 | RIGHT PLICOMETRY 3/3 T30, MEDIA [1, 5]: 30.9 | LEFT PLICOMETRY 1/3 T60, MEDIA [1, 6]: 22.5 | LEFT PLICOMETRY 2/3 T60, MEDIA [1, 6]: 26.6 | LEFT PLICOMETRY 3/3 T60, MEDIA [1, 6]: 28.2 | RIGHT PLICOMETRY 1/3 T60, MEDIA [1, 6]: 22.7 | RIGHT PLICOMETRY 2/3 T60, MEDIA [1, 6]: 27.7 | RIGHT PLICOMETRY 3/3 T60, MEDIA [1, 6]: 29.9 | LEFT PLICOMETRY 1/3 T0 [1, 7]: 23.3 and 17.8 and 35.9 and 24.9 (2×) and 21.1 and 25.9 and 19.8 and 26.7 and 26.0 and 31.1 and 26.6 and 19.7 and 22.9 (2×) and 24.6 and 32.8 and 28.1 and 24.0 and 30.8 and 27.9 and 22.8 and 34.6 and 16.8 and 30.5 | LEFT PLICOMETRY 2/3 T0 [1, 7]: 28.7 and 22.6 and 38.8 and 24.8 and 27.1 and 28.9 and 28.1 and 40.9 and 33.9 and 30.8 and 27.6 and 24.3 and 27.8 and 20.6 and 31.8 and 29.9 and 22.9 and 27.2 and 25.4 and 35.4 and 39.7 and 25.3 and 41.6 and 23.5 and 32.5 | LEFT PLICOMETRY 3/3 T0 [1, 7]: 34.9 and 21.8 and 37.9 and 27.8 and 30.8 and 33.3 and 26.8 and 41.6 and 28.1 and 35.9 (2×) and 35.3 and 20.6 and 33.5 (2×) and 20.1 and 20.3 and 37.2 and 17.8 and 34.1 and 41.5 and 22.9 and 40.9 and 28.9 and 38.1 | RIGHT PLICOMETRY 1/3 T0 [1, 7]: 30.5 and 23.3 and 17.8 and 35.9 and 24.9 (2×) and 21.1 and 25.9 and 19.8 and 26.7 and 26.0 and 31.1 and 26.6 and 19.7 and 22.9 (2×) and 24.6 and 32.8 and 28.1 and 24.0 and 30.8 and 27.9 and 22.8 and 34.6 and 16.8 | RIGHT PLICOMETRY 2/3 T0 [1, 7]: 37.2 and 30.8 and 26.7 and 32.8 and 20.9 and 29.2 and 36.8 and 26.3 and 34.9 and 35.5 and 33.5 and 29.7 and 24.8 and 29.9 and 22.4 and 31.2 and 33.7 and 27.7 and 26.8 and 25.3 and 37.8 and 41.5 and 28.8 and 39.8 and 27.0 | RIGHT PLICOMETRY 3/3 T0 [1, 7]: 40.1 and 41.6 and 25.9 and 32.7 and 29.9 (2×) and 33.8 and 37.1 and 39.8 and 40.6 and 37.7 and 36.8 (2×) and 28.8 and 29.4 and 25.6 and 32.3 and 39.9 and 22.3 and 19.8 and 35.1 and 42.6 and 22.9 and 36.2 and 26.8 | LEFT PLICOMETRY 1/3 T15 [1, 8]: 22.6 (3×) and 17.1 and 35.2 and 24.2 (2×) and 20.4 and 25.2 and 19.1 and 26.0 and 25.3 and 30.4 and 27.2 and 19.6 and 23.9 and 32.9 and 27.4 and 24.6 and 30.6 and 27.8 and 22.8 and 33.9 and 16.1 and 29.8 | LEFT PLICOMETRY 2/3 T15 [1, 8]: 28.0 and 21.9 and 38.1 and 24.1 and 26.4 and 28.2 and 27.4 and 40.2 and 33.2 and 30.1 and 26.9 and 23.6 and 27.1 and 19.9 and 31.1 and 29.2 and 22.2 and 26.5 and 24.7 and 34.7 and 39.0 and 24.6 and 40.9 and 22.8 and 31.8 | LEFT PLICOMETRY 3/3 T15 [1, 8]: 34.3 and 21.2 and 37.3 and 27.2 and 30.2 and 32.7 and 26.2 and 41.0 and 27.5 and 35.3 (2×) and 34.7 and 20.0 and 32.9 (2×) and 19.5 and 19.7 and 36.6 and 17.2 and 33.5 and 40.9 and 22.3 and 40.3 and 28.3 and 37.5 | RIGHT PLICOMETRY 1/3 T15 [1, 8]: 29.0 and 22.0 and 16.5 and 34.5 and 23.5 (2×) and 19.6 and 24.5 and 18.4 and 25.3 and 24.2 and 30.0 and 27.1 and 19.5 and 23.0 and 23.2 and 31.0 and 20.3 and 26.7 and 22.6 and 29.4 and 26.5 and 21.4 and 33.2 and 15.4 | RIGHT PLICOMETRY 2/3 T15 [1, 8]: 35.7 and 28.5 and 25.2 and 30.8 and 19.4 and 27.7 and 35.3 and 24.8 (2×) and 33.4 and 34.0 and 32.0 and 27.3 (2×) and 23.0 and 29.6 and 20.9 and 31.5 and 32.2 and 27.8 and 25.3 and 38.1 and 40.0 and 37.3 and 27.0 | RIGHT PLICOMETRY 3/3 T15 [1, 8]: 40.0 (2×) and 24.9 and 31.7 and 28.9 (2×) and 32.8 and 37.5 and 39.6 and 39.8 and 37.8 and 35.9 and 28.2 and 28.4 and 26.1 and 32.0 and 38.9 and 21.3 and 37.0 and 18.8 and 34.1 and 41.6 and 21.9 and 34.9 and 25.8 | LEFT PLICOMETRY 1/3 T30 [1, 9]: 21.0 and 15.5 and 33.6 and 22.6 and 18.8 and 23.6 and 17.5 and 24.4 and 23.7 and 28.8 and 24.3 and 17.4 and 20.6 and 22.3 and 30.5 and 23.5 and 20.2 and 25.8 and 23.8 and 28.5 and 25.6 and 21.6 and 32.3 and 14.5 and 28.2 | LEFT PLICOMETRY 2/3 T30 [1, 9]: 26.4 and 20.3 and 36.5 and 22.5 and 24.8 and 26.6 and 25.8 and 38.6 and 31.6 and 28.5 and 25.3 and 22.0 and 25.5 and 18.3 and 29.5 and 27.6 and 20.6 and 24.9 and 23.0 (2×) and 33.5 and 37.4 and 39.3 and 21.2 and 30.2 | LEFT PLICOMETRY 3/3 T30 [1, 9]: 32.8 and 19.7 and 35.8 and 25.7 and 28.7 and 31.2 and 24.7 and 39.5 and 26.0 and 33.8 (2×) and 33.2 and 18.5 (2×) and 31.4 (2×) and 18.2 and 35.1 and 15.7 and 32.0 and 39.4 and 20.8 and 38.8 and 26.8 and 36.0 | RIGHT PLICOMETRY 1/3 T30 [1, 9]: 28.2 and 18.9 and 15.5 and 33.2 and 22.4 and 18.8 and 23.6 and 17.5 and 24.4 and 24.2 and 28.8 and 26.5 and 17.4 and 22.7 and 21.8 and 31.2 and 22.6 and 20.5 (2×) and 25.8 and 21.7 and 27.6 and 24.3 and 32.5 and 14.5 | RIGHT PLICOMETRY 2/3 T30 [1, 9]: 34.6 and 28.2 and 24.0 and 30.2 and 18.2 and 25.4 (2×) and 34.0 and 23.7 and 33.5 and 32.9 and 30.0 and 27.6 and 21.7 and 26.5 and 20.0 and 30.8 and 31.0 and 23.9 and 22.3 and 38.1 and 40.0 and 26.2 and 35.6 and 24.3 | RIGHT PLICOMETRY 3/3 T30 [1, 9]: 40.2 and 39.9 and 23.6 and 30.4 and 27.6 (2×) and 31.5 and 36.9 and 38.4 and 38.5 and 36.2 and 33.6 and 26.3 and 26.5 and 23.7 and 31.2 and 37.6 and 19.6 and 36.4 and 17.5 and 30.5 and 39.8 and 20.4 and 34.0 and 25.6 | LEFT PLICOMETRY 1/3 T60 [1, 10]: 20.5 and 15.0 and 30.9 and 22.1 (2×) and 18.3 and 23.1 and 17.0 and 23.9 (2×) and 23.2 and 27.6 and 23.6 and 16.5 and 18.4 and 21.2 and 30.5 and 19.8 and 25.3 and 20.7 and 26.2 and 21.5 and 30.4 and 14.0 and 27.7 | LEFT PLICOMETRY 2/3 T60 [1, 10]: 25.7 and 19.6 and 35.8 and 21.8 and 24.1 and 25.9 and 25.1 and 37.9 and 30.9 and 27.8 and 24.6 and 21.3 and 24.8 and 17.6 and 28.8 and 26.9 and 19.9 and 24.2 and 22.4 and 32.4 and 36.7 and 22.3 and 38.6 and 20.5 and 29.5 | LEFT PLICOMETRY 3/3 T60 [1, 10]: 31.9 and 18.8 and 34.9 and 24.8 and 27.8 and 30.3 and 23.8 and 38.6 and 25.1 and 33.2 and 32.3 and 17.6 and 29.6 and 17.2 and 30.5 and 32.9 and 18.5 and 34.2 and 14.8 and 31.0 and 38.5 and 19.9 and 37.9 and 25.9 and 35.1 | RIGHT PLICOMETRY 1/3 T60 [1, 10]: 27.5 and 20.5 and 15.0 and 32.1 and 22.0 and 17.8 and 23.0 and 16.7 (2×) and 23.7 and 24.6 and 27.6 and 26.6 and 21.5 and 21.7 and 28.9 and 21.4 and 18.4 and 24.1 and 21.3 and 28.0 and 23.9 and 19.9 and 31.7 and 13.8 | RIGHT PLICOMETRY 2/3 T60 [1, 10]: 34.0 and 26.3 and 23.2 and 29.4 and 17.3 and 26.0 and 32.8 and 23.5 and 33.6 and 32.1 and 30.0 and 26.5 and 20.9 and 26.7 and 20.0 and 27.8 and 29.7 and 25.6 (2×) and 23.9 and 21.8 and 37.7 and 40.0 and 35.3 and 23.8 | RIGHT PLICOMETRY 3/3 T60 [1, 10]: 38.9 and 37.4 (2×) and 22.3 (2×) and 29.4 and 27.0 and 32.1 and 35.2 and 36.8 and 26.9 and 35.6 and 33.2 (2×) and 25.3 and 26.6 and 29.5 and 35.4 and 18.2 and 34.1 and 17.0 and 30.9 and 39.8 and 19.7 and 23.7 | Comparison of the salt with the two reactants by themselves [2]: provides the best results
